Measurements as given in EP0525686A1, “Dimethylacetylacetic acid amides, process for their preparation and pharmaceutical compositions” (LUITPOLD PHARMA GmbH, priority 1991, dated 1993).

Legend:
[1] = test system: Carrageenin-Lösung erzeugte Ödeme der rechten Hinterpfote; experiment: Carrageenan-induced paw oedema test for anti-inflammatory activity; format: in vivo, Wistar-Ratten; settings: 200 mg/kg p.o., 30 min before carrageenan; paw volume 3 h after injection; female Wistar rats, n=10
From the text: Die Prüfung auf antientzündliche Wirkung (C. A. Winter, E. A. Risley, G. W. Nuss; Proc. Soc. Exp. Biol. Med. 111, 544 (1962)) erfolgte durch mit 0.5 %iger wäßriger Carrageenin-Lösung erzeugte Ödeme der rechten Hinterpfote an Gruppen mit je zehn nüchternen, ca. 150 g schweren weiblichen Wistar-Ratten. Dazu wurden mit einem Plethysmometer die Volumina der markierten rechten Hinterpfote unmittelbar vor und drei Stunden nach der Injektion der Carrageenin-Lösung gemessen. Die zu prüfenden Substanzen wurden 30 Minuten vor Erzeugung des Ödems als Gummi arabicum Suspension mittels einer Schlundsonde p.o. verabreicht. Die Kontrollgruppe erhielt reines Leitungswasser. Die Einzeldosis pro Tier lag bei 200 mg/kg Körpergewicht.
Zur Auswertung wurde die prozentuale Zunahme des Pfotenvolumens für jedes Tier nach folgender Formel berechnet: [formula] dann wurden Mittelwerte und Streuung für alle so berechneten Werte einer Gruppe bestimmt. Der Unterschied zwischen der mit Prüfsubstanz behandelten Versuchs- und der zugehörigen unbehandelten Gruppe wurde nach der Formel [formula] ermittelt. Die statistische Auswertung erfolgte nach den üblichen Verfahren.

[2] = Acute toxicity (LD50), tolerability; settings: in vivo; species and route not given
Description: Im Zusammenhang mit der vorliegenden Erfindung wurde überraschend gefunden, daß Substanzen der allgemeinen Formel I wertvolle pharmakologische Eigenschaften aufweisen und insbesondere als antientzündliche Wirkstoffe eingesetzt werden können. Neben der guten Verträglichkeit - die LD50 der Verbindung aus Beispiel 1 liegt beispielsweise bei über 1000 mg/kg - zeichnen sich Verbindungen der allgemeinen Formel I durch nützliche analgetische und antipyretische Eigenschaften aus. Insbesondere eignen sich die erfindungsgemäßen Verbindungen zur Behandlung entzündlicher Erkrankungen bei Mensch und Tier. Die Krankheitsbilder, die mit den erfindungsgemäßen Verbindungen behandelt werden können, umfassen alle entzündlichen Zustände, wie zum Beispiel Entzündungen der Haut wie Radiodermatitis, Psoriasis, Akne, Ekzeme, Entzündungen am Auge wie zum Beispiel Conjunktivitis, Entzündungen im Hals-Nasen-Ohren-Bereichwie zum Beispiel katarralische Infektionen der oberen Luftwege und Sinusitis, entzündliche Erkrankungen des Gefäßsystems wie Thrombophlebitis oder Vaskulitis und Entzündungen des Nervensystems wie zum Beispiel Neuralgien oder Neuritiden. Bevorzugt zu behandelnde entzündliche Erkrankungen sind Entzündungen im Bereich des Bewegungsapparates wie Arthritiden, Arthrose, Tendinitis, Tendopathien, Kontusionen und Distorsionen, Weichteilrheumatismus, Gicht und Lumbalgien. […]

With `CC(C)C(=O)CC(=O)Nc1nccs1` [Beispiel 2, N-(2-Thiazolyl)-4-methylpentan-3-on-säureamid] as the compound, how does the “% Hemmung” value [1] read?
The value was 32%.

With `COc1ccc(NC(=O)CC(=O)C(C)C)cc1` [Beispiel 3, N-(4-Methoxyphenyl)-4-methylpentan-3-on-säureamid] as the compound, how does the “% Hemmung” value [1] read?
Its value is 27%.

With `COc1ccccc1NC(=O)CC(=O)C(C)C` [Beispiel 1, N-(2-Methoxyphenyl) 4-methylpentan-3-on-säureamid] as the compound, how does the “% Hemmung” value [1] read?
Its value is 52%.

And the LD50 [2]?
Its LD50 is over 1000 mg/kg.

For `COc1ccc(C)cc1NC(=O)CC(=O)C(C)C` [Beispiel 4, N-(2-Methoxy-5-methylphenyl)-4-methylpentan-3-on-säureamid], which “% Hemmung” value [1] is on record?
The value was 26%.
